Measured values as given in patent US8268848B2, “Cyclopropane compound” (Eisai R&D Management Co., Ltd., priority 2010, dated 2012).
Where two headings read alike, the source gives them in different places.

Columns and labels:
OX1 = molecular target: T1, OX1 (Homo sapiens, UniProt O43613); assay: Measurement of orexin receptor-binding ability ([125I]-OX-A, cell membranes, OX1); design: expressed in transfected cells; host or cells: CHO cells (membrane preparation)
T1 sequence (O43613 1-425): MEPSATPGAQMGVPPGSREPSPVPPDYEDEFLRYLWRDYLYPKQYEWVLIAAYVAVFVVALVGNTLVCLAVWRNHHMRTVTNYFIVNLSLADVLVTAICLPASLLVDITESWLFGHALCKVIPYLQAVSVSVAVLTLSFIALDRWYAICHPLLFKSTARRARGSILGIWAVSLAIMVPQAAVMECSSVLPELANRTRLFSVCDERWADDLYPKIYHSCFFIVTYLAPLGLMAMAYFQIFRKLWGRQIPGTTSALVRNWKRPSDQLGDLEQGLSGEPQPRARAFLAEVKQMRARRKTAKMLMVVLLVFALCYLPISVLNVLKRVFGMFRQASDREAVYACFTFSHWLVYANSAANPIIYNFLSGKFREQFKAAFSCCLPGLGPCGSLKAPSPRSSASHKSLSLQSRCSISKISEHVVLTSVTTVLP

OX2 = molecular target: T2, OX2 (Homo sapiens, UniProt O43614); assay: Measurement of orexin receptor-binding ability ([125I]-OX-A, cell membranes, OX2); design: expressed in transfected cells; host or cells: CHO cells (membrane preparation); conditions: membranes of recombinant CHO cells expressing OX2, 0.2 nM [125I]-OX-A
T2 sequence (O43614 1-444): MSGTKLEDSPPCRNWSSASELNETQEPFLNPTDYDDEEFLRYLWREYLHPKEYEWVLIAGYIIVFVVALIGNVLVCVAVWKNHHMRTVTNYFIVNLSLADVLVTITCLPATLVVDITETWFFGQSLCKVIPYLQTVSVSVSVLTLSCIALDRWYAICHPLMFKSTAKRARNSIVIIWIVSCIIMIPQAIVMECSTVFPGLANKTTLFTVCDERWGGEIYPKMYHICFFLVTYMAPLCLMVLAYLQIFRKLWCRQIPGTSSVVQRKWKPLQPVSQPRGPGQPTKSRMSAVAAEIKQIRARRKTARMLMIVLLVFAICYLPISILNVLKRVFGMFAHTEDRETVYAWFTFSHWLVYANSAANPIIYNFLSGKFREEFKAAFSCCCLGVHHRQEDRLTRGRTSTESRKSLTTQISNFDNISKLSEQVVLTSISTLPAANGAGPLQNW

[1] = membranes of recombinant CHO cells expressing OX1, 0.2 nM [125I]-OX-A, read-out: OX1 (IC50)

## Cc1ncc(OC[C@@]2(c3cc(F)cc(F)c3)C[C@H]2C(=O)Nc2ccc(C#N)cn2)c(C)n1 [Example 137, (1R,2S)-N-(5-cyanopyridin-2-yl)-2-(3,5-difluorophenyl)-2-{[(2,4-dimethylpyrimidin-5-yl)oxy]methyl}cyclopropanecarboxamide]
OX1
  IC50: 0.097 µM
OX2; OX2 (IC50) nM
  IC50: 4 nM

## Cc1ncc(OCC2(c3ccc(Cl)cc3)CC2C(=O)Nc2cccnc2)c(C)n1 (centres unmarked) [Example 160]
OX1; [1]
  IC50: 0.389 µM
OX2; read-out: OX2 (IC50)
  IC50: 28 nM

## Cc1ncc(OC[C@@]2(c3ccccc3)C[C@H]2c2nc3cc(F)ccc3[nH]2)c(C)n1 [Example 303, 2-{(1R,2S)-2-{[(2,4-dimethylpyrimidin-5-yl)oxy]methyl}-2-phenylcyclopropyl}-5-fluoro-1H-benzimidazole]
OX1; [1]
  IC50: 0.075 µM
OX2; read-out: OX2 (IC50)
  IC50: 3 nM

## Cc1ncc(N(C)C[C@@]2(c3cccc(F)c3)C[C@H]2C(=O)Nc2ccc(F)cc2)c(C)n1 [Example 294]
OX1; [1]
  IC50: > 0.2 µM
OX2; read-out: OX2 (IC50)
  IC50: 14 nM

## Cc1ncc(NC[C@@]2(c3cccc(F)c3)C[C@H]2C(=O)Nc2ccc(F)cn2)c(C(F)(F)F)n1 [Example 302, (1R,2S)-2-(3-fluorophenyl)-N-(5-fluoropyridin-2-yl)-2-[N-(2-methyl-4-trifluoromethylpyrimidin-5-yl)aminomethyl]cyclopropanecarboxamide]
OX1; [1]
  IC50: 0.008 µM
OX2; read-out: OX2 (IC50)
  IC50: 3 nM

## COc1cc(NC(=O)[C@@H]2C[C@@]2(COc2cnc(C)nc2C)c2ccc(F)c(F)c2)ncc1F [Example 173, (1R,2S)-2-(3,4-difluorophenyl)-2-{[(2,4-dimethylpyrimidin-5-yl)oxy]methyl}-N-(5-fluoro-4-methoxypyridin-2-yl)cyclopropanecarboxamide]
OX1; [1]
  IC50: 0.0036 µM
OX2; read-out: OX2 (IC50)
  IC50: 3.3 nM

## CC(=O)c1cccc(NC(=O)[C@@H]2C[C@@]2(COc2cnc(C)nc2C)c2ccccc2)c1 [Example 37]
OX1
  IC50: 0.041 µM
OX2; OX2 (IC50) nM
  IC50: 8 nM

## COc1cccc(C2(COc3cnc(C)nc3C)CC2C(=O)Nc2cccnc2)c1 (centres unmarked) [Example 184]
OX1; [1]
  IC50: 0.784 µM
OX2; read-out: OX2 (IC50)
  IC50: 21 nM

## Cc1ncc(OC[C@@]2(c3ccccc3)C[C@H]2C(=O)Nc2cccc(C#N)c2)c(C)n1 [Example 80]
OX1
  IC50: 0.054 µM
OX2; OX2 (IC50) nM
  IC50: 16 nM

## Cc1ncc(OC[C@@]2(c3ccccc3)C[C@H]2C(=O)Nc2cccc(Cl)n2)c(C)n1 [Example 12]
OX1; [1]
  IC50: 0.247 µM
OX2; read-out: OX2 (IC50)
  IC50: 53 nM

## COCc1nc(C)ncc1OC[C@@]1(c2cc(F)cc(F)c2)C[C@H]1C(=O)Nc1ccc(F)cc1 [Example 219, (1R,2S)-2-(3,5-difluorophenyl)-N-(4-fluorophenyl)-2-{[(4-methoxymethyl-2-methylpyrimidin-5-yl)oxy]methyl}cyclopropanecarboxamide]
OX1; [1]
  IC50: 0.01 µM
OX2; read-out: OX2 (IC50)
  IC50: 3 nM

## Cc1ncc(OC[C@@]2(c3ccc(F)c(F)c3)C[C@H]2C(=O)Nc2ccc(Cl)cn2)c(C)n1 [Example 168, (1R,2S)-N-(5-chloropyridin-2-yl)-2-(3,4-difluorophenyl)-2-{[(2,4-dimethylpyrimidin-5-yl)oxy]methyl}cyclopropanecarboxamide]
OX1
  IC50: 0.015 µM
OX2; OX2 (IC50) nM
  IC50: 4 nM

## Cc1ncc(OC[C@@]2(c3cccc(F)c3)C[C@H]2C(=O)Nc2ccc(F)cn2)c(C)[n+]1[O-] [Example 285]
OX1
  IC50: 0.077 µM
OX2; OX2 (IC50) nM
  IC50: 16 nM

## COCc1cccc(NC(=O)[C@@H]2C[C@@]2(COc2cnc(C)nc2C)c2ccccc2)c1 [Example 42]
OX1
  IC50: 0.374 µM
OX2; OX2 (IC50) nM
  IC50: 12 nM

## Cc1ncc(OCC2(c3cccc(Br)c3)CC2C(=O)Nc2ccc(F)cn2)c(C)n1 (centres unmarked) [Example 271]
OX1
  IC50: 0.018 µM
OX2; OX2 (IC50) nM
  IC50: 5 nM

## Cc1ncc(OC[C@@]2(c3ccc(F)c(F)c3)C[C@H]2C(=O)Nc2ccc(C#N)cn2)c(C)n1 [Example 167, (1R,2S)-N-(5-cyanopyridin-2-yl)-2-(3,4-difluorophenyl)-2-{[(2,4-dimethylpyrimidin-5-yl)oxy]methyl}cyclopropanecarboxamide]
OX1
  IC50: 0.038 µM
OX2; OX2 (IC50) nM
  IC50: 10 nM

## Cc1cc(NC(=O)[C@@H]2C[C@@]2(COc2cnc(C)nc2C)c2ccccc2)ccn1 [Example 28]
OX1; [1]
  IC50: 1.7 µM
OX2; read-out: OX2 (IC50)
  IC50: 101 nM

## Cc1ncc(OC[C@@]2(c3ccccc3)C[C@H]2C(=O)Nc2cc(F)cc(F)n2)c(C)n1 [Example 76-1, (1R,2S)-N-(4,6-difluoropyridin-2-yl)-2-{[(2,4-dimethylpyrimidin-5-yl)oxy]methyl}-2-phenylcyclopropanecarboxamide]
OX1
  IC50: 0.489 µM
OX2; OX2 (IC50) nM
  IC50: 61 nM

## Cc1ncc(OC[C@@]2(c3cccc(F)c3)C[C@H]2C(=O)Nc2ccccc2)c(C)n1 [Example 93, (1R,2S)-2-{[(2,4-dimethylpyrimidin-5-yl)oxy]methyl}-2-(3-fluorophenyl)-N-phenylcyclopropanecarboxamide]
OX1
  IC50: 0.054 µM
OX2; OX2 (IC50) nM
  IC50: 9 nM

## Cc1ncc(OC[C@@]2(c3ccccc3)C[C@H]2C(=O)Nc2cnc(Cl)c(C(F)(F)F)c2)c(C)n1 [Example 60]
OX1; [1]
  IC50: > 2 µM
OX2; read-out: OX2 (IC50)
  IC50: 105 nM

## Cc1ncc(OC[C@@]2(c3ccccc3)C[C@H]2C(=O)Nc2ccc3c(c2)N(C)C(=O)CO3)c(C)n1 [Example 22]
OX1; [1]
  IC50: 0.273 µM
OX2; read-out: OX2 (IC50)
  IC50: 17 nM

## Cc1ccc(NC(=O)[C@@H]2C[C@@]2(COc2cnc(C)nc2C)c2ccccc2)nc1 [Example 69]
OX1
  IC50: 0.126 µM
OX2; OX2 (IC50) nM
  IC50: 34 nM

## Cc1nc(C)c(OC[C@@]2(c3cccc(F)c3)C[C@H]2C(=O)Nc2ccc(F)cn2)c(=O)[nH]1 [Example 326, (1R,2S)-2-{[(2,4-dimethyl-6-oxo-1,6-dihydropyrimidin-5-yl)oxy]methyl}-2-(3-fluorophenyl)-N-(5-fluoropyridin-2-yl)cyclopropanecarboxamide]
OX1
  IC50: 0.123 µM
OX2; OX2 (IC50) nM
  IC50: 6 nM

## Cc1ncc(OC[C@@]2(c3cccc(F)c3)C[C@H]2C(=O)Nc2ccc(F)c(F)c2)c(C)n1 [Example 84, (1R,2S)-N-(3,4-difluorophenyl)-2-{[(2,4-dimethylpyrimidin-5-yl)oxy]methyl}-2-(3-fluorophenyl)cyclopropanecarboxamide]
OX1
  IC50: 0.006 µM
OX2; OX2 (IC50) nM
  IC50: 3 nM

## Cc1ncc(OC[C@@]2(c3ccccc3)C[C@H]2C(=O)Nc2cccc(C(F)(F)F)c2)c(C)n1 [Example 43, (1R,2S)-2-{[(2,4-dimethylpyrimidin-5-yl)oxy]methyl}-2-phenyl-N-[3-(trifluoromethyl)phenyl]cyclopropanecarboxamide]
OX1; [1]
  IC50: 0.086 µM
OX2; read-out: OX2 (IC50)
  IC50: 7 nM

## COCc1nc(C)ncc1OC[C@@]1(c2ccc(F)cc2)C[C@H]1C(=O)Nc1cc(C)c(F)cn1 [Example 205, (1R,2S)-N-(5-fluoro-4-methylpyridin-2-yl)-2-(4-fluorophenyl)-2-{[(4-methoxymethyl-2-methylpyrimidin-5-yl)oxy]methyl}cyclopropanecarboxamide]
OX1
  IC50: 0.009 µM
OX2; OX2 (IC50) nM
  IC50: 6 nM

## Cc1ncc(OC[C@@]2(c3cccc(F)c3)C[C@H]2C(=O)Nc2ccc(I)cn2)c(C)n1 [Example 280]
OX1
  IC50: 0.024 µM
OX2; OX2 (IC50) nM
  IC50: 21 nM

## Cc1ncc(OCC2(c3cccnc3)CC2C(=O)Nc2ccc(Cl)cn2)c(C)n1 (centres unmarked) [Example 260, N-(5-chloropyridin-2-yl)-2-{[(2,4-dimethylpyrimidin-5-yl)oxy]methyl}-2-pyridin-3-ylcyclopropanecarboxamide]
OX1; [1]
  IC50: > 2 µM
OX2; read-out: OX2 (IC50)
  IC50: 70 nM

## CCc1nc(C)ncc1OC[C@@]1(c2cccc(F)c2)C[C@H]1C(=O)Nc1ccc(F)cc1 [Example 316, (1R,2S)-2-{[(4-ethyl-2-methylpyrimidin-5-yl)oxy]methyl}-2-(3-fluorophenyl)-N-(4-fluorophenyl)cyclopropanecarboxamide]
OX1; [1]
  IC50: 0.007 µM
OX2; read-out: OX2 (IC50)
  IC50: 1.1 nM

## CCc1nc(C)ncc1OC[C@@]1(c2cccc(F)c2)C[C@H]1C(=O)Nc1ccc(C#N)cn1 [Example 242, (1R,2S)-N-(5-cyanopyridin-2-yl)-2-{[(4-ethyl-2-methylpyrimidin-5-yl)oxy]methyl}-2-(3-fluorophenyl)cyclopropanecarboxamide]
OX1; [1]
  IC50: 0.006 µM
OX2; read-out: OX2 (IC50)
  IC50: 4 nM

## COc1ccc(C2(COc3cnc(C)nc3C)CC2C(=O)Nc2ccc(F)cn2)cc1 (centres unmarked) [Example 181]
OX1
  IC50: 0.118 µM
OX2; OX2 (IC50) nM
  IC50: 100 nM

## Cc1ncc(OC[C@@]2(c3ccccc3)C[C@H]2C(=O)Nc2cc(Cl)cc(C#N)c2)c(C)n1 [Example 35]
OX1; [1]
  IC50: 0.558 µM
OX2; read-out: OX2 (IC50)
  IC50: 43 nM

## Cc1ncc(OCC2(c3ccccc3Cl)CC2C(=O)Nc2ccc(Cl)cn2)c(C)n1 (centres unmarked) [Example 152]
OX1
  IC50: 0.058 µM
OX2; OX2 (IC50) nM
  IC50: 36 nM

## Cc1nc(C)[n+]([O-])cc1OC[C@@]1(c2cccc(F)c2)C[C@H]1C(=O)Nc1ccc(F)cn1 [Example 284]
OX1
  IC50: 0.112 µM
OX2; OX2 (IC50) nM
  IC50: 6 nM
